Experiment [1] has as its system AGS. As to the kind of experiment: Combination treatment with cisplatin or etoposide, MTT, AGS. Format: cell-based, human. Particulars: MTT, 72 hours. The text has this: (§1) It is well established that radiotherapy and most current forms of chemotherapy cause extensive genetic damage and induction of the p53-dependent apoptotic pathway, which determines the important role of this tumor suppressor protein in cancer therapy. HDM2, on the other hand, as a transcriptional product and negative regulator pf p53, would destabilise p53 and diminish its pro-apoptotic function. Inhibitors of the p53-HDM2 negative feedback loop (e.g. compounds disrupting the p53-HDM2 complex) are expected to synergise with cytotoxic agents for induction of p53 and subsequent apoptosis. […] Both chemotherapeutic agents were used in the concentration range of 100-0.19 μM.

The next experiment concerns H1299. Briefly: Combination treatment with cisplatin or etoposide, MTT, H1299. It counts as cell-based, human. Particulars: 72 hours.
Source text: as §1

For another experiment, the system named is SJSA-1. Briefly: Combination treatment with cisplatin or etoposide, MTT, SJSA-1. It counts as cell-based, human. Particulars: MTT, 72 hours.
Source text: as §1

Experiment [2] deals with key proteins in the HDM2 pathway. Briefly: SDS-PAGE and immunoblotting of key proteins in the HDM2 pathway. Format: cell-based, human. Particulars: for changes in protein levels and cell morphology: negative control: MCF7, 13.5 μM, 68/69: MCF7 and H1299 at five times IC50 of 69, 49: AGS, SJSA1, H1299. An excerpt:
Equal amounts of cell lysate were separated by SDS-PAGE and analysed by immunoblotting using the indicated antibodies. An estimation of the extent of cell rounding is indicated above each lane. […] (B) The effect of compound 2 on the levels of the cell cycle proteins in AGS cells (wild-type 53). […] Equal amounts of cell lysate were separated by SDS-PAGE and analysed by immunoblotting using the indicated antibodies. An estimation of the extent of cell rounding is indicated above each lane. (C) The effect of negative control compound (refer Example 10), compound 2, cisplatin, and anisomycin on the levels of key proteins in MCF7 cells. […] Cisplatinum and anisomycin (a transcription inhibitor) treatments were with 50 μM or 37 μM, respectively. Cells were harvested at various time points; afterwards lysates were prepared and separated by SDS-PAGE and analysed by immunoblotting. The proteins detected are indicated. The extent of rounded or floating cells and the percentage viable cells were assessed. […] Equal amounts of cell lysate were separated by SDS-PAGE and analysed by immunoblotting using a range of antibodies. An estimation of the extent of cell rounding is indicated above each lane. […] SJSA1 cells were treated with 5 times [IC50] of compound 2 and collected at the indicated time points. Equal amounts of cell lysate were separated by SDS-PAGE and analysed by immunoblotting using a range of antibodies. An estimation of the extent of cell rounding is indicated above each lane.
Many types of cellular stress converge on the p53 pathway and induce its activity. […] The biological effect of bisarylsufonamides on cellular level was studies using representative compounds (mainly compound 2) and number of cell lines with different HDM2 and p53 status. These were overexpressing Hdm2 (SJSA1—osteosarcoma), wild type p53 and normal levels of HDM2 (AGS—gastric adenocarcinoma, MCF7—breast adenocarcinoma), or p53 null, low levels of HDM2 (H1299—large cell lung carcinoma).
Cells were lysed and equal amounts were analysed by SDS-polyacrylamide gel electrophoresis (SDS-PAGE) and immunoblotting.

The subject of the next experiment is MCF7 or H1299 cells. Briefly: Cell cycle distribution, propidium iodide flow cytometry. It counts as cell-based, human. Particulars: 5 times IC50. How it is done: Cells were stained with propidium iodide and the cell cycle position was determined using a flow cytometer.
The target in experiment [3] is T1, HDM2 (Homo sapiens, UniProt Q00987).
T1 construct: Recombinant HDM2 (1.5 μg per well) in TBS-BSA buffer
T1 sequence (Q00987 whole entry): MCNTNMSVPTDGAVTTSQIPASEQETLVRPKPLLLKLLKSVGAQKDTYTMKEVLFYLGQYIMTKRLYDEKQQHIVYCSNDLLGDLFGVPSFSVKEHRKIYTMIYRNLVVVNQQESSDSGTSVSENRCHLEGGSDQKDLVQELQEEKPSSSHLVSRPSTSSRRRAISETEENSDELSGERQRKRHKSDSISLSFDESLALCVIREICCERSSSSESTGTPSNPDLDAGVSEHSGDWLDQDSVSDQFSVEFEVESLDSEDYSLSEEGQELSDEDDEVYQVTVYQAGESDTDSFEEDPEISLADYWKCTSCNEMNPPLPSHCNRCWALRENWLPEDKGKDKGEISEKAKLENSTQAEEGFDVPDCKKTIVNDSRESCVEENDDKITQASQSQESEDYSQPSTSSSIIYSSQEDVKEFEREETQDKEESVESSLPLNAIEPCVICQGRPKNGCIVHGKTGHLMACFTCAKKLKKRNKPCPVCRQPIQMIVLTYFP
As to the kind of experiment: Fluorescence polarisation competitive HDM2 binding assay. In outline: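 Recombinant HDM2 (1.5 μg/well) was preincubated 5 min at room temperature with serially diluted compound in 50 mM Tris pH 7.4, 150 mM NaCl, 0.1% BSA, 5% DMSO final. Fluorescein-labelled p53 peptide (0.2 μM) was then added for 45 min. Polarisation was read at 485/520 nm and IC50 derived from dose-response curves.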
(In general: Fluorescence polarisation rises when a labelled molecule tumbles more slowly, as on binding a larger partner.)

The test system of experiment [4] is AGS. As to the kind of experiment: 72-h MTT cytotoxicity assay, AGS. Particulars: Homo sapiens, 72-h MTT, Table 1, read-out: IC50 Anti-proliferative effect on cell line AGS. It counts as cell-based. In outline: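 Compounds were incubated with three human tumour lines chosen for genetic contrast, then viability was scored by MTT reduction. AGS is gastric with intact p53, SJSA-1 is bone sarcoma bearing intact p53 and amplified HDM2 expression, and H1299 is lung carcinoma without p53.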
For orientation: Tetrazolium dyes change colour on reduction, which living cells bring about.

Experiment [5] addresses T1, HDM2. Particulars: literature, cited from earlier work; for affinity for HDM2 / inhibition of the p53/HDM2 complex: background.
The test system of the next experiment is carcinoma cell lines. As to the kind of experiment: 72-h MTT panel, average carcinomas. Format: cell-based. Particulars: Homo sapiens, read-out: Anti-proliferative activity, 72-h MTT IC50, Average carcinomas. As to the method:
Representative bisarylsulfonamide compounds were tested on a panel of transformed and non-transformed human cell lines, using a standard 72-h MTT cytotoxicity assay [Haselsberger K et al, ibid].
This differential selectivity further supports the notion that the bisarylsulfonamides modulate cellular HDM2 function. It is known that HDM2 amplification is particularly common in soft tissue sarcomas and osteosarcomas [Momand J et al, ibid; Bartel F, Meye A, Wurl P, Kappler M, Bache M, Lautenschlager C, Grunbaum U, Schmidt H, Taubert H; Int. J. Cancer 2001; 95: 168-175].

[6] abbreviates: Table 5, read-out: IC50, agent alone.
Where [7] appears, read: Homo sapiens, Table 6, read-out: IC50, agent alone.

Like-named read-outs stand apart in the source and are kept apart here.

The term IC50 denotes the midpoint of a concentration-inhibition curve. With `N.N.[Cl][Pt][Cl]` [Cisplatin, reference compound], the half-maximal inhibitory concentration (IC50) was 3800 nM in the experiment with AGS [1] (setting [6]); 2900 nM with H1299 (MTT, Table 5, read-out: IC50, agent alone); 6.1 µM with SJSA-1 (setting [6]). Besides, in [2] (compound 2: AGS, H1299, MCF7 or SJSA1 cells, etoposide or cisplatinum: AGS or MCF7 cells), the “p53 level and p53 phosphorylation at serine 15” value was “inducing p53 phosphorylation of serine 15, as well as increasing the p53 and E2F-1 protein levels”. Also, the cell cycle arrest result with MCF7 or H1299 cells is on record as “no detectable arrest at any phase of the cell cycle”. Further, the “sub-G1 cells, indicative of apoptosis” value with MCF7 or H1299 cells is on record as “induced sub-G1 cells”.

Turning to `O=[N+]([O-])c1ccc(S(=O)(=O)Nc2ccc(Cl)cc2)s1` [Compound 68, 5-Nitro-thiophene-2-sulfonic acid (4-chloro-phenyl)-amide], the IC50 at HDM2 [3] (text of Example 10, refer Table 1, read-out: competitive inhibition IC50) turned out to be 431 µM; with AGS [4], 76 µM. For the same compound, in experiment [2], the “changes in protein levels and cell morphology” value is reported as “Little change in protein levels”.

With `O=C(O)COc1ccc(C(=O)C=Cc2ccc(Cl)c(Cl)c2)cc1` [Compound B-1, {4-[3-(3,4-dichloro-phenyl)-acryloyl]-phenoxy}-acetic acid], the “affinity for HDM2 / inhibition of the p53/HDM2 complex” value on HDM2 [5] is listed as “high micromolar affinity”.

Regarding `COc1cc([C@@H]2c3cc4c(cc3[C@@H](O[C@@H]3O[C@@H]5CO[C@@H](C)O[C@H]5[C@H](O)[C@H]3O)[C@H]3COC(=O)[C@H]23)OCO4)cc(OC)c1O` [Etoposide, reference compound], the half-maximal inhibitory concentration (IC50) in the experiment on AGS [1] (setting [7]) was determined as 280 nM; with H1299 (Homo sapiens, NCI-H1299, MTT, Table 6, read-out: IC50, agent alone), 1300 nM; in the experiment on SJSA-1 (setting [7]) it was 16 µM.

Turning to `CC[C@H](CO)Nc1nc(NCc2ccccc2)c2ncn(C(C)C)c2n1` [Roscovitine, reference compound], the 50% inhibitory concentration (IC50) in the experiment on carcinoma cell lines is 11.2 ± 3 µM.

Turning to `O=S(=O)(NCc1ccc(C(F)(F)F)cc1)c1cc(Br)c(Cl)s1` [negative control compound, 4-bromo-5-chloro-thiophene-2-sulfonic acid 4-trifluoromethyl-benzylamide, reference compound], the “inhibition of the HDM2-p53 interaction in vitro” value at HDM2 [3] was “does not inhibit”. The “changes in protein levels and cell morphology” value in experiment [2] was “did not induce any notable changes in the protein levels tested or cell morphology”.

In the case of FMDYWEGL, the “affinity for HDM2 / inhibition of the p53/HDM2 complex” value in the experiment with HDM2 [5] is “micromolar affinity”.

As for MPRFMDYWEGLN, the “affinity for HDM2 / inhibition of the p53/HDM2 complex” value in the experiment with HDM2 [5] is “sub-micromolar affinity”. For the same compound, the “fold more potent than the corresponding wild-type p53-derived peptide” value in the experiment with HDM2 [5] (versus 16QETFSDLWKLLF27) was 28 fold.

Regarding “TFSDLW (UniProt P04637 18-23, looked up, fragment) [p53(18-23)]”, in the experiment with HDM2 [5], the “affinity for HDM2 / inhibition of the p53/HDM2 complex” value was “little affinity”.

Turning to chlorofusin, the “affinity for HDM2 / inhibition of the p53/HDM2 complex” value at HDM2 [5] was “micromolar inhibitor”.
